Laboratory results as given in patent US20140079836A1, “METHODS AND COMPOSITIONS FOR ALTERING HEALTH, WELLBEING, AND LIFESPAN” (LifeSpan Extension, LLC, priority 2008, published 2014).
“And” between values parts separate entries of the source, which are not always exact repeats. Equal values may be shown once.

Tested on: entire human genome (gene expression profile)
Experiment: Agilent whole human genome array, skin fibroblasts AG07999, antioxidant with or without UV
Assay type: cell-based
Description: Cell cultures: A human skin fibroblast cell culture was obtained through the Coriell Cell Repository from the National Institute on Aging Cell Repository. […] Culture media: Cells were grown in Minimal Essential Medium supplemented with 10% fetal bovine serum, 2 mM L-glutamine, 2 mM Glutamax I. […] All cultures were incubated at 37° C. with 5% CO2 in a humidified chamber. […] On Day 5 after 24 hours of exposure to test conditions, the cells were isolated and the RNA isolated using the RT^2q PCR-grade RNA isolation kit (Superarray Bioscience Corporation). […] Analysis of Agilent Whole Human Genome Arrays: RNA taken from both samples was sent to Cogenics, Inc. Morrisville, N.C. Cogenics, Inc. is a leading, state-of-the-art, microarray service provider that facilitates and accelerates transcriptome profiling and gene discovery processes for industrial and academic researchers. Cogenics' procedure for processing samples is as follows: RNA samples are received and analyzed by Cogenics, Inc. using rigorous standardized procedures that are designed to ensure quality and chain of custody. Each sample undergoes a thorough quality analysis using an Agilent Bioanalyzer microfluidics device, and is precisely quantified using a Nanodrop-1000 spectro-photometer. When the Agilent Oligonucleotide Microarray Platform is utilized, samples are fluorescently labeled using the Agilent Low-Input Linear Amplification Kit. Upon completion of this process, the labeled cRNA products are assessed using the same processes described above. These labeled samples are then fragmented and hybridized to oligonucleotide microarrays. The microarrays are washed and then scanned using an Agilent DNA Microarray Scanner with Sure Scan technology. Data is extracted from the images produced by the scanner using Agilent's Feature Extraction software. At this point, the scanned image is visually inspected for defects, and the extracted data is statistically analyzed to ensure quality of the assay. Extracted data and images can be loaded into Rosetta Resolver Gene Expression Data Analysis System for in-depth analysis, both from a quality standpoint, as well as to develop biological understanding. […] A table was generated and provided as a tab-delimited text file. This file will contain the log ratio, fold-change, log ratio p-value, etc. for every transcript measured by the microarray. Using Rosetta Resolver, a single ratio comparison was compiled based on the results of the two fluorophore reversal hybridization performed in the context of this project. The ratios were calculated such that the Tx sample was in the numerator and the UnTx sample was in the denominator. A table was generated, saved as tab-delimited text files, and is provided on the DVD that accompanied this report in the “Objective—1” subdirectory or the “Data_Analysis” directory. These files contain the log ratio, fold-change, log ratio p-value, etc. for every transcript present on the microarray. […] A table for will be generated and provided as a tab-delimited text file. The file will contain the log ratio, fold-change, log ratio p-value, etc. for only the differentially expressed transcripts within the context of the comparison. […] These criteria were applied to the comparison made in Objective 1. A table was generated, saved as tab-delimited text files, and is provided on the DVD that accompanied this report in the “Objective—1” subdirectory or the “Data_Analysis” directory. […] Cell cultures: A human skin fibroblast cell culture (or cultures) will be obtained through the Coriell Cell Repository from the National Institute on Aging Cell Repository. […] Culture media: Cells will be grown in Minimal Essential Medium supplemented with 10% fetal bovine serum, 2 mM L-glutamine, 2 mM Glutamax I.

COC1=C(OC)C(=O)C(CCCCCCCCCCO)=C(C)C1=O [Idebenone, 6-(10-hydroxydecyl)-2,3-dimethoxy-5-methyl-1,4-benzoquin-one]
fold change of gene expression (sequence name in c0), Idebenone + UVB: n.s. | ABL1 Expression (Alone): 1.0 | ACE Expression (Alone): −1.0 | ACTB Expression (Alone): 1.1 and 1.0 | AK3 Expression (Alone): 1.0 | ALDOA Expression (Alone): 1.0 | ANKRD17 Expression (Alone): −1.0 | APEX1 Expression (Alone): 1.2 | APEX2 Expression (Alone): −1.1 | APOE Expression (Alone): 1.0 | ATF2 Expression (Alone): 1.1 | ATIC Expression (Alone): 1.0 | ATM Expression (Alone): 1.2 | ATR Expression (Alone): 1.2 | ATRX Expression (Alone): 1.0 | ATXN3 Expression (Alone): −1.1 | B2M Expression (Alone): −1.0 | BARD1 Expression (Alone): 1.4 | BAX Expression (Alone): 1.3 | BCL2 Expression (Alone): 1.0 | BLM Expression (Alone): 1.0 | BPNT1 Expression (Alone): −1.2 | BRCA1 Expression (Alone): −1.0 | BRCA2 Expression (Alone): 1.1 | BRIP1 Expression (Alone): 1.0 | BTG2 Expression (Alone): 1.0 | CASP2 Expression (Alone): 1.0 | CASP9 Expression (Alone): −1.0 | CCNH Expression (Alone): −1.1 | CDA Expression (Alone): −1.5 | CDK7 Expression (Alone): 1.0 | CDKN1A Expression (Alone): 1.2 | CDKN2A Expression (Alone): 1.0 | CETN2 Expression (Alone): 1.1 | CHEK1 Expression (Alone): −1.5 | CHEK2 Expression (Alone): 1.1 | CHUK Expression (Alone): 1.0 | CIB1 Expression (Alone): 1.0 | CIDEA Expression (Alone): 1.3 | CIDEB Expression (Alone): −1.2 | CLK1 Expression (Alone): 1.0 | CREBBP Expression (Alone): −1.0 | CRY1 Expression (Alone): 1.0 | CRY2 Expression (Alone): −1.1 | CSF2 Expression (Alone): 2.4 | CTPS Expression (Alone): 1.0 | CYP19A1 Expression (Alone): 1.4 | DCLRE1C Expression (Alone): 1.0 | DDB1 Expression (Alone): 1.9 | DDB2 Expression (Alone): 1.0 | DDC Expression (Alone): 1.0 | DDIT3 Expression (Alone): 1.1 | DHFR Expression (Alone): 1.0 | DKC1 Expression (Alone): 1.0 | DMC1 Expression (Alone): 1.1 | DPYS Expression (Alone): 1.1 | DUT Expression (Alone): 1.5 | E2F1 Expression (Alone): −1.5 | E2F2 Expression (Alone): −1.1 | E2F3 Expression (Alone): −1.5 | ENTPD4 Expression (Alone): 1.1 | ERCC1 Expression (Alone): 1.2 | ERCC2 Expression (Alone): 1.0 | ERCC3 Expression (Alone): −1.0 | ERCC4 Expression (Alone): −1.1 | ERCC5 Expression (Alone): 1.0 | ERCC6 Expression (Alone): 1.4 | ERCC8 Expression (Alone): −1.1 | ERH Expression (Alone): 1.0 | EXO1 Expression (Alone): 1.1 | FANCA Expression (Alone): 1.0 | FANCC Expression (Alone): −1.0 | FANCF Expression (Alone): −1.1 | FANCG Expression (Alone): 1.1 | FEN1 Expression (Alone): −1.0 | FPGS Expression (Alone): 1.2 | GADD45A Expression (Alone): −1.1 | GADD45G Expression (Alone): 1.0 | GAPDH Expression (Alone): −1.1 | GDA Expression (Alone): 1.0 | GH1 Expression (Alone): 1.0 | GML Expression (Alone): −1.3 | GMPR Expression (Alone): 1.0 | GTF2H1 Expression (Alone): 1.1 | GTF2H2 Expression (Alone): −1.2 | GTF2H3 Expression (Alone): 1.0 | GTF2H4 Expression (Alone): −1.4 | GTSE1 Expression (Alone): −1.1 | HK1 Expression (Alone): −1.1 | HLA-DRA Expression (Alone): 1.0 | HPRT1 Expression (Alone): 1.2 and 1.1 | HSP90AB1 Expression (Alone): 1.1 | HSPA1A Expression (Alone): 1.4 | HSPA1L Expression (Alone): 1.0 | HTRA1 Expression (Alone): 1.1 | HUS1 Expression (Alone): 1.0 | IFI44 expression (Alone): −1.6 | IGF1 Expression (Alone): 1.0 | IGF2 Expression (Alone): 1.0 | IGHMBP2 Expression (Alone): 1.1 | IHPK3 Expression (Alone): 1.1 | IL1A Expression (Alone): −1.0 | IL6 Expression (Alone): −1.0 | IL10 Expression (Alone): 1.1 | INPPL1 Expression (Alone): −1.2 | JUN Expression (Alone): 1.0 | KRAS Expression (Alone): −1.2 | LIG1 Expression (Alone): 1.0 | LIG3 Expression (Alone): 1.0 | LIG4 Expression (Alone): 1.0 | LTA Expression (Alone): −1.1 | MAP2K6 Expression (Alone): 1.0 | MAPK8 Expression (Alone): −1.3 | MAPK9 Expression (Alone): −1.0 | MAPK12 Expression (Alone): −1.0 | MAPK14 Expression (Alone): 1.0 | MAPKAPK2 Expression (Alone): −1.4 | MAX Expression (Alone): −1.0 | MBD4 Expression (Alone): 1.0 | MCM2 Expression (Alone): 1.4 | MDH1 Expression (Alone): 1.0 | MGMT Expression (Alone): −1.3 | MKI67 Expression (Alone): 1.4 | MLH1 Expression (Alone): 1.0 | MLH3 Expression (Alone): 1.0 | MMP1 Expression (Alone): −1.4 | MMP2 Expression (Alone): −1.1 | MMP3 Expression (Alone): 2.3 | MMP7 Expression (Alone): −1.6 | MMP10 Expression (Alone): 1.0 | MMP11 Expression (Alone): 1.1 | MMP12 Expression (Alone): 1.7 | MMP13 Expression (Alone): 1.0 | MMP14 Expression (Alone): −1.1 | MMP15 Expression (Alone): −1.0 | MNAT1 Expression (Alone): 1.0 | MPG Expression (Alone): 1.0 | MRE11A Expression (Alone): 1.2 | MSH2 Expression (Alone): 1.0 | MSH3 Expression (Alone): 1.1 | MSH4 Expression (Alone): 1.0 | MSH6 Expression (Alone): 1.0 | MSRA Expression (Alone): −1.0 | MT2A Expression (Alone): −1.3 | MTAP Expression (Alone): 1.1 | MUTYH Expression (Alone): −1.0 | MVK Expression (Alone): 1.6 | MYBL2 Expression (Alone): 1.4 | MYCBP Expression (Alone): −1.0 | N4BP2 Expression (Alone): 1.1 | NADSYN1 expression (Alone): 1.2 | NBN Expression (Alone): −1.2 | NCK1 Expression (Alone): 1.0 | NEIL1 Expression (Alone): 1.5 | NEIL2 Expression (Alone): 1.2 | NEIL3 Expression (Alone): −1.0 | NF1 Expression (Alone): −1.1 | NFKB1 expression (Alone): −1.5 | NFKBIA Expression (Alone): 1.0 | NGFR Expression (Alone): 1.0 | NOS2A Expression (Alone): 1.0 | NP Expression (Alone): −1.2 | NR1D1 Expression (Alone): −1.6 | NRG1 Expression (Alone): 1.1 | NTHL1 Expression (Alone): 1.1 | NUDT1 Expression (Alone): 1.3 | NUDT2 Expression (Alone): −1.0 | OAS1 Expression (Alone): 1.3 | OAS2 Expression (Alone): 1.2 | OAS3 Expression (Alone): 1.0 | OGG1 Expression (Alone): −1.3 | PAK1 Expression (Alone): −1.0 | PAPSS1 Expression (Alone): −1.0 | PAPSS2 Expression (Alone): −1.0 | PARP1 Expression (Alone): 1.3 and 1.2 | PARP2 Expression (Alone): 1.3 | PCNA Expression (Alone): −1.0 | PDZK1IP1 Expression (Alone): 1.0 | PITRM1 Expression (Alone): −1.1 | PKM2 Expression (Alone): −1.1 | PLAT Expression (Alone): −1.1 | PLAU Expression (Alone): −1.6 | PLAUR Expression (Alone): −1.1 | PLK1 Expression (Alone): 1.3 | POLA2 Expression (Alone): 1.0 | PPARG Expression (Alone): −1.0 | PPIE Expression (Alone): 1.1 | PRDX6 Expression (Alone): −1.5 | PSMA2 Expression (Alone): 1.1 | PSMA3 Expression (Alone): 1.1 | PSMC6 Expression (Alone): 1.0 | PSMD1 Expression (Alone): −1.0 | PSMD11 Expression (Alone): 1.1 | PSMD12 Expression (Alone): 1.0 | PTGS1 Expression (Alone): 1.2 | RAF1 Expression (Alone): −1.0 | RB1 Expression (Alone): −1.5 | RET Expression (Alone): −1.0 | RORA Expression (Alone): −1.2 | RPL3 Expression (Alone): 1.0 | RPL13A Expression (Alone): −1.0 | RPS9 Expression (Alone): 1.2 | RPS10 Expression (Alone): 1.0 | RRAS Expression (Alone): −1.1 | RRM1 Expression (Alone): −1.0 | S100A7 Expression (Alone): 2.7 | S100A8 Expression (Alone): 1.0 | S100A10 Expression (Alone): −1.7 | S100A11 Expression (Alone): −1.1 | SDS Expression (Alone): −2.0 | SERPINB2 Expression (Alone): −2.9 | SERPINE1 Expression (Alone): −1.4 | SHC1 Expression (Alone): 1.2 and 1.0 | SIRT1 Expression (Alone): −1.2 | SLK Expression (Alone): −1.0 | SMAD1 Expression (Alone): 1.2 | SNCG Expression (Alone): 1.4 | SOD1 Expression (Alone): −1.0 | SOD2 Expression (Alone): 1.1 and 1.0 | SPARC Expression (Alone): −1.2 | SPP1 Expression (Alone): −2.7 | SPRR1B Expression (Alone): 1.0 | SRI Expression (Alone): −1.0 | STAT5A Expression (Alone): −1.0
